According to US7348152B2, “Rhamnose binding protein” (Solbec Pharmaceutical Limited, priority 2002, dated 2008):

Experiments:
A2058 cells [1] = assay: Staining of cells with fluorescein tagged rhamnose probe (FRITC); type: cell-based
Experimental: A2058 cells were coated at low density in a microscope compatible chamber. The cells were washed with HBS^2+ then incubated with FRITC (top concentration of DMSO=2.5%) for 5-15 min at 37° C. The FRITC was removed, the cells washed twice with HBS^2+ and examined under a visible light microscope. The incubation was repeated with 0-100 μM fluorescein-amine, and for 25 and 6 μM FRITC using a 10^3× excess of unlabelled rhamnose.
A fluorescein tagged rhamnose probe (FRITC) was prepared as previously described and used to stain A2058 cells.
FRITC at concentrations from 3-25 μM was incubated with A2058 cells for 15 minutes at 37° C.

A2058 cells [2] = assay: Co-administration of BEC® and rhamnose, cell survival; type: cell-based; conditions: 5 mM rhamnose, 5000 cells, 5 minutes and 4 days
Experimental: A2058 cells at two different cell densities were treated with BEC® +/−rhamnose and cell survival was monitored after 4 days. The treatments comprised: (i) BEC® only for 4 days (ii) BEC® only for 5 minutes (iii) BEC® and 5 mM rhamnose for 4 days and (iv) BEC® and 5 mM rhamnose for 5 minutes.

RBP bearing cells = assay: Cell adhesion between RBP bearing cells; type: cell-based; conditions: RBP binds ligand
[3] = system: rhamnose binding protein (RBP); assay: Dissociation constant of the receptor estimated from the cytotoxicity functions; conditions: read-out: dissociation constant of RBP when bound to the rhamnose moiety of solamargine
Experimental: Given that the evaluation of the cytotoxicities for different cell lines needed to be conducted using different sized cell populations, it was considered prudent to determine the effect, if any, of cell number on the measured value of LD50. Five cell lines, HT-29, LS174-T, 5637, A431 and MCF-7 were evaluated at four different seeding cell densities. Hs578T and CCD 18Lu were evaluated at three seeding densities and Hs578Bst, both early and late passage cells, were evaluated at two seeding densities.
In order that the full range of cell densities be evaluated with at least one cell line, a 3-day version of the cytotoxicity was developed. The cell lines involved were recalibtrated for the 3-day format. Multiwell plates were seeded on day 1. Cells were treated with BEC® on day 2 and MTT was added twenty four hours later.
Comparing the two fitted functions, two distinct regions are discernable (FIG. 8). […] We estimate that the dissociation constant for this receptor is likely to be of the order of 1.5×10^−6 M.

Fluorescein Rhamnose-ITC [FRITC] was tested, and the “fluorescent staining of cells” value (A2058 cells [1]; FRITC 3-25 μM, 15 minutes at 37° C.) was “found to fluoresce”.

For C[C@H](O)[C@H](O)[C@@H](O)[C@@H](O)C=O [rhamnose], the “inhibition of FRITC staining” value (A2058 cells [1]; co-incubation with free rhamnose at 10 mM) was “staining could be inhibited”, the “rhamnose competition with BEC® uptake (protective effect)” value (A2058 cells [2]) was “affects the amount of BEC® taken up by the cells” and the “cell adhesion of RBP bearing cells” value (RBP bearing cells) was “inhibited”.

Compound C[C@@H]1CC[C@@]2(NC1)O[C@H]1C[C@H]3[C@@H]4CC=C5C[C@@H](O[C@@H]6O[C@H](CO)[C@@H](O[C@@H]7O[C@@H](C)[C@H](O)[C@@H](O)[C@H]7O)[C@H](O)[C@H]6O[C@@H]6O[C@@H](C)[C@H](O)[C@@H](O)[C@H]6O)CC[C@]5(C)[C@H]4CC[C@]3(C)[C@H]1[C@@H]2C [solamargine] has a Kd [3] of roughly 1.5 µM.
